Experimental data: patent publication US11713305B2, “Zinc sensors for in vivo imaging of beta-cell function by MRI” (The Board of Regents of the University of Texas System, priority 2017, dated 2023)

Tests used:
[1] = 17O NMR of Gd complexes (water exchange, SBM fitting); format: physicochemical; design: A/ℏ: unit not given here; conditions: for hyperfine coupling constant (AO/ℏ): 17O NMR fit, underlined values fixed during fitting; for water exchange rate kex^310 / ΔH‡ / ER / τRO^298 / A/ℏ / EV / Δ^2 / τV^298: 17O NMR; for water exchange rate kex^310 / ΔH‡: 9.4 T; for water exchange rate kex^310: 310 K; for ΔH‡ / ER / τRO^298 / A/ℏ / EV / Δ^2 / τV^298: best-fit; for ΔH‡: [Gd^3+]=25 mM; for ER: activation energy of rotational correlation time; for τRO^298: rotational correlation time; for A/ℏ: scalar coupling constant; for EV / Δ^2 / τV^298: sometimes fixed; for water exchange rate kex: slowest exchange rates, in 1/s; for faster water exchange rates: compared with GdL1 and GdL4; for empirical constant describing the outer sphere contribution to the 17O chemical shift, Cos: fitted
Procedure: Given that the rate of water exchange (kex) in these complexes is likely the limiting factor in determining the magnitude of r1 increase when the GdL-Zn complexes bind to HSA, further temperature dependent ^17O NMR studies were performed to evaluate the water exchange rates. A simultaneous analysis of ^17O reduced T1, T2, and chemical shift (Δωr) data were analyzed (Powell et al., 1996; Gonzalez et al., 1994; Martins et al., 2013; Martins et al., 2015) to estimate the q values, kex, and hyperfine coupling constants for GdL1-5.
^17O NMR experiments were performed at 9.4 T on a Bruker AVANCE III NMR spectrometer. The temperature was regulated by air flow controlled by a Bruker VT unit. The samples ([Gd^3+]=25 mM; [Dy^3+]=1 mM) were prepared in ^17O enriched water (10%) with the pH being maintained at 7.4 with 100 mM Tris buffer. The sample was loaded into a 18 μL spherical bulb (Wilmad-Lab Glass, Vineland, NJ) and placed inside a 5 mm NMR tube containing 400 μL of water to eliminate any susceptibility effects. Longitudinal relaxation rates (1/T1) were obtained by the inversion recovery method and transverse relaxation rates (1/T2) were obtained by the Carr-Purcell—Meiboom—Gill spin echo technique. The acidified water (pH=3.0) containing 10% enriched ^17O water was used as a reference for the measurements. For the DyL4 complexes (no HSA and with HSA+Zinc), acidified water solutions and 1 mM LaL4+3 mM HSA with zinc (1:1) were used as the corresponding references. The corresponding fittings were performed with the Scientist 3.0 software (Micromath®).
^17O NMR data have been analyzed within the framework of Solomon-Bloembergen-Morgan theory.
From the measured ^17O NMR relaxation rates and angular frequencies of the paramagnetic solutions, 1/T1, 1/T2 and ω, and of the acidified water reference, a1/T1A, 1/T2A and ωA, one can calculate the reduced relaxation rates and chemical shifts, 1/7′2, and Δωr, which may be written in Equations (A1)-(A3), where, 1/T1m, 1/T2m, is the relaxation rate of the bound water and Awn, is the chemical shift difference between bound and bulk water molecules, τm is the mean residence time or the inverse of the water exchange rate kex and Pm is the mole fraction of the bound water (Swift and Connick, 1962; Zimmerman and Brittin, 1957).
The outer sphere contributions to the ^17O relaxation rates 1/T1OS and 1/T2OS are being neglected according to previous studies (Micskei et al., 1993). Therefore, Equations (A1-A2) can be further simplified to Equations (A4) and (A5): […]
The exchange rate is supposed to obey the Eyring Equation. In Equation (A6) ΔS^‡ and ΔH^‡ are the entropy and enthalpy of activation for the water exchange process, and kex^298 is the exchange rate at 298.15 K.
In the transverse relaxation, the scalar contribution, 1/T2s, is the most relevant [Equation (A7)]. 1/τsl is the sum of the exchange rate constant and the electron spin relaxation rate [Equation (A8)].
The ^17O longitudinal relaxation rates in Gd^3+ solutions are the sum of the contributions of the dipole-dipole (dd) and quadrupolar (q) mechanisms as expressed by Equations (A11-A13) for non-extreme narrowing conditions, where γS is the electron and γ1 is the nuclear gyromagnetic ratio (γS=1.76×10^11 rad s^−1 T^−1, γ1=˜3.626×107 rad s^−1 T^−1), rGdO is the effective distance between the electron charge and the ^17O nucleus, I is the nuclear spin (5/2 for ^17O), x is the quadrupolar coupling constant and η is an asymmetry parameter:
In Equation (A3) the chemical shift of the bound water molecule, Δωm, depends on the hyperfine interaction between the Gd^3+ electron spin and the ^17O nucleus and is directly proportional to the scalar coupling constant, A/h, as expressed in Equation (A12) (Brittain and Desreux, 1984).
The isotopic Landé g factor is equal to 2.0 for the Gd^3+, B represents the magnetic field, and kB is the Boltzmann constant. […]

[2] = r1 relaxivity measurements (20 MHz, 0.5 T, 37° C.); format: physicochemical; conditions: 100 mM Tris buffer; for r1 0.6 mM HSA alone / r1 No Zn^2+: no Zn^2+; for r1 With Zn^2+ / r1 Zn^2+ + 0.6 mM HSA: CA:Zn = 1:1; for r1 No Zn^2+: no HSA
Procedure: Longitudinal relaxation times were measured using inversion recovery method on a MRS-6 NMR analyzer from the Institute Joz̆ef Stefan (Ljubljana, Slovenija) operating at 20 MHz. Relaxivity was determined by linear regression analysis of the relaxation rates of five solutions (0-1.0 mM). All samples were measured at 310 K using a warm air blower. Five different sample concentrations (0, 0.25, 0.5, 0.75, 1.0 mM) of gadolinium complex were made up in Tris buffer at 0.1 M and pH 7.4 to generate the relaxivity value for the free complex. ZnCl2 was then added to each of the above sample to produce a [Gd]:[Zn] ratio of 1:1. After 30 min of incubation at 310 K, T1 measurements were performed, from which the relaxivity of sensor-Zn^2+ was calculated. Finally, HSA was added to each of above sample to achieve HSA concentration of 0.6 mM. After further incubation at 310 K for 30 min, T1 of each sensor-Zn^2+-HSA adduct was measured, from which the relaxivity of sensor-Zn^2+-HSA adduct was calculated. Zinc titrations were performed with constant [GdL]=0.5 mM and increasing amounts of [Zn^2+]=0-2 mM in Tris buffer at 0.1 M and pH 7.4.

hyperfine coupling constant (AO/ℏ) [1] | ΔH‡ [1] [kcal/mol] | ER [1] [kcal/mol] | τRO^298 [1] [ps] | A/ℏ [1] | EV [1] [kcal/mol] | Δ^2 [1] | τV^298 [1] [ps] | r1 0.6 mM HSA alone [2] [s⁻¹ mM⁻¹] | r1 With Zn^2+ [2] | r1 Zn^2+ + 0.6 mM HSA [2] | r1 No Zn^2+ [2] [s⁻¹ mM⁻¹] | empirical constant describing the outer sphere contribution to the 17O chemical shift, Cos [1] | Structure (SMILES) | water exchange rate kex^310 [1] | water exchange rate kex [1] | faster water exchange rates [1] [fold]
−4.0 ± 0.2 ×10^6 rad/s | 10.6 ± 0.239 | 4.95 ± 0.048 | 280 ± 11 | −4.0 ± 0.1 | 0.263 ± 0.024 | 0.10 ± 0.01 10^20 s^−2 | 4.6 ± 0.1 | 5.8 ± 0.1 | 5.2 ± 0.1^b s^−1 mM^−1 | 17.8 ± 0.5^b s^−1 mM^−1 | 4.8 ± 0.1 |  | O=C(O)CN1CCN(CC(=O)O)CCN(CC(=O)NCCN(Cc2ccccn2)Cc2ccccn2)CCN(CC(=O)O)CC1 [GdL1] | 2.9 ± 0.1 ×10^6 s^−1 | ~3 ×106 5-1 | 
−3.7 ± 0.2 ×10^6 rad/s | 10.9 ± 0.263 | 4.09 ± 0.048 | 320 ± 11 | −3.7 ± 0.2 | 0.263 ± 0.0024 | 0.13 ± 0.01 10^20 s^−2 | 7.1 ± 0.1 | 6.5 ± 0.1 | 5.5 ± 0.1^b s^−1 mM^−1 | 19.8 ± 0.6^b s^−1 mM^−1 | 4.9 ± 0.1 | 0.1 | O=C(O)CN1CCN(CCC(=O)NCCN(Cc2ccccn2)Cc2ccccn2)CCN(CC(=O)O)CCN(CC(=O)O)CC1 [GdL2] | 100 ± 1 ×10^6 s^−1 |  | ~30
−3.7 ×10^6 rad/s | 11.2 ± 0.239 | 4.11 ± 0.024 | 320 | −3.7 | 0.263 | 0.13 10^20 s^−2 | 7.1 | 6.9 ± 0.2 | 5.4 ± 0.1^b s^−1 mM^−1 | 21.5 ± 0.7^b s^−1 mM^−1 | 5.0 ± 0.1 | 0.1 | O=C(O)CCN1CCN(CC(=O)O)CCN(CC(=O)NCCN(Cc2ccccn2)Cc2ccccn2)CCN(CC(=O)O)CC1 [GdL3] | 90 ± 0.2 ×10^6 s^−1 |  | ~30
−4.0 ± 0.2 ×10^6 rad/s | 3.61 ± 0.359 | 4.16 ± 0.048 | 350 ± 12 | −4.0 ± 0.4 | 0.239 | 0.16 10^20 s^−2 | 11 | 5.6 ± 0.1 | 5.1 ± 0.1^b s^−1 mM^−1 | 11.4 ± 0.3^b s^−1 mM^−1 | 4.7 ± 0.1 |  | O=C(O)CN1CCN(CC(=O)O)CCN(CC(=O)NCCN(CCc2ccccn2)Cc2ccccn2)CCN(CC(=O)O)CC1 [GdL4] | 3.0 ± 0.1 ×10^6 s^−1 | ~3 ×106 5-1 | 
−3.9 ± 0.3 ×10^6 rad/s | 10.9 ± 0.311 | 3.59 | 305 ± 10 | −3.9 ± 0.2 | 0.239 | 0.67 ± 0.2 10^20 s^−2 | 14 ± 0.2 | 6.3 ± 0.2 | 5.3 ± 0.1^b s^−1 mM^−1 | 10.4 ± 0.3^b s^−1 mM^−1 | 4.9 ± 0.1 |  | O=C(O)CN1CCN(CCC(=O)NCCN(CCc2ccccn2)Cc2ccccn2)CCN(CC(=O)O)CCN(CC(=O)O)CC1 [GdL5] | 100 ± 1 ×10^6 s^−1 |  | ~30
